Reference: paper PMC6962712, “Glucose-6-Phosphate Upregulates Txnip Expression by Interacting With MondoA” (Frontiers in Molecular Biosciences, 2020)

Target: T1, MondoA/Mlx (Homo sapiens, UniProt Q9HAP2)
T1 construct: gene MLXIP; endogenous full-length MondoA/Mlx heterodimer in nuclear extract of Bcap37 cells, not purified; with Max-like protein X
T1 sequence (Q9HAP2 2-919): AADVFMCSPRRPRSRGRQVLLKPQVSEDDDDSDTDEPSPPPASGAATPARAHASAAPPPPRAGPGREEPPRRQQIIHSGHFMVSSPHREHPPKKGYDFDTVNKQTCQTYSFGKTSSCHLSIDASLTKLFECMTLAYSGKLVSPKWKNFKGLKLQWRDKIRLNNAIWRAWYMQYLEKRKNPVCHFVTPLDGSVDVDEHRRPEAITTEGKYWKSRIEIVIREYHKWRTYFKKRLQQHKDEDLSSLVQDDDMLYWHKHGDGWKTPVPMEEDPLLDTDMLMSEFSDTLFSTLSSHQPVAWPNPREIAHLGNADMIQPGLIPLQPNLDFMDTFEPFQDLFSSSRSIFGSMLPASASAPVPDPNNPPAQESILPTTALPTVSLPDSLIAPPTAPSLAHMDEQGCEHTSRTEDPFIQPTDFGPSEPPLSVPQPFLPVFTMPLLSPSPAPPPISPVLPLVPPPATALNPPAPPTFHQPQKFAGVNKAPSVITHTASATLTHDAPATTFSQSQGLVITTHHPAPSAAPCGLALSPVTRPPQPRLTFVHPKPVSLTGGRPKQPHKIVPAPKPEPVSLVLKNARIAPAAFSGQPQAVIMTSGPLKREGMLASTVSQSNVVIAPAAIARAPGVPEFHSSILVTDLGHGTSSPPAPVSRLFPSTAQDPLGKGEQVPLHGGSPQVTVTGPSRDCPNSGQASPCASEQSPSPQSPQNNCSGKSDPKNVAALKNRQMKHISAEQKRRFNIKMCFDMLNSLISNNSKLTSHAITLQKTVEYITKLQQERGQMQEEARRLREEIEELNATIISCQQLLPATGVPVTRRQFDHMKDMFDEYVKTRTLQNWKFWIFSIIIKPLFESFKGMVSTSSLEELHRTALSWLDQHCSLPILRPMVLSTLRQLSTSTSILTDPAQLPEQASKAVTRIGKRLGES
T1 sequence (Q9UH92 1-298 partner): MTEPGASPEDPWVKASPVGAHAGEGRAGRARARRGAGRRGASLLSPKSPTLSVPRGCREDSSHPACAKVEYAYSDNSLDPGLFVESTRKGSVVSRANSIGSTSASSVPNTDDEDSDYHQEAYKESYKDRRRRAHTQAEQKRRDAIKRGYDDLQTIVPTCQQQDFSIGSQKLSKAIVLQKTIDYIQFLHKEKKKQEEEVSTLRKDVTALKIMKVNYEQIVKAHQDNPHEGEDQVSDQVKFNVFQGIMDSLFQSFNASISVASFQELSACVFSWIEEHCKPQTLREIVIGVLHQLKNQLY
Assay: EMSA, biotinylated Txnip ChoRE probe
Type: biochemical
Settings: Bcap37 nuclear extract; G6PNa2 added in vitro (e.g. 0.05 and 0.25 mM); activator of promoter binding; indirect read-out, not a direct binding test

With O=P(O)(O)OC[C@H]1OC(O)[C@H](O)[C@@H](O)[C@@H]1O (stereo partly shown) [G6PNa2] as the compound, how does the “EMSA, biotinylated Txnip ChoRE probe” value read?
Its value is “binding of MondoA to the promoter probe was significantly promoted by the activation of G6PNa2”.
